Laboratory results: ChEMBL document CHEMBL4818984, “Kojic acid-natural product conjugates as mushroom tyrosinase inhibitors” (Eur J Med Chem, 2020)
One block for each molecule: values may come before it. The source made the active and inactive calls. The calls are words filed in the database; no cut-off is given here.

Tests used:
[1] = molecular target: T1, Tyrosinase (Agaricus bisporus, UniProt O42713); test: Inhibition of mushroom tyrosinase using L-tyrosine as substrate by HPLC analysis
T1 sequence (O42713 whole entry): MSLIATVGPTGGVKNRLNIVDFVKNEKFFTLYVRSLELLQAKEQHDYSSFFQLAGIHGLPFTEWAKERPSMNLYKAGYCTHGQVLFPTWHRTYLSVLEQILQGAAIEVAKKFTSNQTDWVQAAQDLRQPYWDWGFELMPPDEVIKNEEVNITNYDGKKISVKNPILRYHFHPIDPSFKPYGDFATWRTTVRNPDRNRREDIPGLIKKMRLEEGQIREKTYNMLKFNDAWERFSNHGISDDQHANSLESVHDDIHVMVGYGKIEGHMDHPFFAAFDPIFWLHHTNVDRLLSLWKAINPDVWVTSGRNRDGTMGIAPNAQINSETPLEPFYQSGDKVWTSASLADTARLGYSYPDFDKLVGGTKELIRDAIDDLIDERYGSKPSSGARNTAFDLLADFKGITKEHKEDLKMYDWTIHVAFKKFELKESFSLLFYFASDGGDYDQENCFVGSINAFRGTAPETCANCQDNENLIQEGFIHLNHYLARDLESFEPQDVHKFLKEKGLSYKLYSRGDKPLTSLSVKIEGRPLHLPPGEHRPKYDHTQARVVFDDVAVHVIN

[2] = molecular target: T2, Tyrosinase (Agaricus bisporus) (UniProt O42713); test: Potency index, ratio of kojic acid IC50 to compound IC50 for inhibition of mushroom tyrosinase using L-DOPA as substrate by ELISA
T2 sequence (whole entry): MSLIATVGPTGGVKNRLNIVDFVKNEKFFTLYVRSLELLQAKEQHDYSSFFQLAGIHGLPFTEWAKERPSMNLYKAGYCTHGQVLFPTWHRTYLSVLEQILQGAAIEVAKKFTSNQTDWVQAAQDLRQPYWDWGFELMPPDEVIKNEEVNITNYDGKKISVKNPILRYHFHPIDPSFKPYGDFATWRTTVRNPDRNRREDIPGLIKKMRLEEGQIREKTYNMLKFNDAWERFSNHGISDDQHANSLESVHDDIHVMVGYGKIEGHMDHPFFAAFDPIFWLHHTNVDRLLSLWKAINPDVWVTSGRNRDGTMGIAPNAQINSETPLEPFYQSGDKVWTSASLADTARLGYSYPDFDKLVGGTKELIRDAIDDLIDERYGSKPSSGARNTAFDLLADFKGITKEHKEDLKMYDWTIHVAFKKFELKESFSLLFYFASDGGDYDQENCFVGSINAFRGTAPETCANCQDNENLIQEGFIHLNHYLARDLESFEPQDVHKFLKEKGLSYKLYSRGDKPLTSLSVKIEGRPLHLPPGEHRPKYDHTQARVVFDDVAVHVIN

[3] = molecular target: T1, Tyrosinase; test: Inhibition of mushroom tyrosinase assessed as reduction in dopachrome formation using L-DOPA as substrate by ELISA
[4] = Antioxidant activity assessed as DPPH radical scavenging activity at 10 uM; format: functional
[5] = molecular target: T2, Tyrosinase (Agaricus bisporus); test: Non-competitive inhibition of mushroom tyrosinase using L-DOPA as substrate by Lineweaver-Burk double reciprocal plot analysis
[6] = tested on: B16-F10; test: cells; conditions: Mus musculus
Description: Cytotoxicity against mouse B16-F10 cells assessed as reduction in cell viability by MTT assay

[7] = tested on: B16-F10; test: Antimelanogenic activity against mouse B16-F10 cells assessed as reduction of melanin content at 5 uM measured after 24 hrs by microplate reader assay; format: functional, cell-based
[8] = molecular target: T1, Tyrosinase; test: Competitive inhibition of mushroom tyrosinase using L-DOPA as substrate by Lineweaver-Burk double reciprocal plot analysis
[9] = tested on: HFF; test: cells; conditions: Homo sapiens
Description: Cytotoxicity against human HFF cells assessed as reduction in cell viability by MTT assay

[10] = molecular target: T3, Tyrosinase (Homo sapiens, UniProt P14679); test: Inhibition of tyrosinase (unknown origin)
T3 sequence (P14679 whole entry): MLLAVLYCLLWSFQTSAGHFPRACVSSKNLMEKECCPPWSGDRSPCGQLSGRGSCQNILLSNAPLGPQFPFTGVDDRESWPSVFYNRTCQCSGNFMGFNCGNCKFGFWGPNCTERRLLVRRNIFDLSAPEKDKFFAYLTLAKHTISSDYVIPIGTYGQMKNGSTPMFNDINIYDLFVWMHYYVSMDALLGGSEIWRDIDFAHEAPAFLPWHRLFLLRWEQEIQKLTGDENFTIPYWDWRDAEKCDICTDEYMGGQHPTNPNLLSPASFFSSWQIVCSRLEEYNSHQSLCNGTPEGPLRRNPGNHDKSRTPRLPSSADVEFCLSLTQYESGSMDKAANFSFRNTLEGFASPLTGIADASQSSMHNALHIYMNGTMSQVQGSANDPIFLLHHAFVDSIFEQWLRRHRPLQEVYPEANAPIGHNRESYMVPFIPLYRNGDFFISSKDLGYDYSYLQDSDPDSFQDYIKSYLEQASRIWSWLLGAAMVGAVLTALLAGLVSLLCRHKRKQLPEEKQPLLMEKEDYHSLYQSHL

[11] = molecular target: T1, Tyrosinase; test: Inhibition of mushroom tyrosinase using L-tyrosine as substrate measured after 30 mins by microplate reader analysis
[12] = molecular target: T2, Tyrosinase (Agaricus bisporus); test: Inhibition of mushroom tyrosinase using L-DOPA as substrate at 0.5 uM in presence of 0.005 to 1.2 mM Cu2+ by ELISA
[13] = molecular target: T1, Tyrosinase; test: Inhibition of mushroom tyrosinase using L-tyrosine as substrate measured after 15 mins by microplate reader analysis
[14] = compound: Cc1ccc(C(C)C)cc1OCc1cn(Cc2cc(=O)c(O)co2)nn1; test: (§1) Mixed-type of inhibition of mushroom tyrosinase assessed as Km using L-DOPA as substrate at 0.1 uM by Lineweaver-Burk double reciprocal plot analysis (reference value: […] to […] mM); conditions: Agaricus bisporus
[15] = compound: COc1cc(C(C)=O)ccc1OCc1cn(Cc2cc(=O)c(O)co2)nn1; test: as §1; conditions: Agaricus bisporus
[16] = compound: O=c1cc(OCc2cn(Cc3cc(=O)c(O)co3)nn2)c2ccccc2o1; test: as §1; conditions: Agaricus bisporus
[17] = compound: Cc1ccc(C(C)C)cc1OCc1cn(Cc2cc(=O)c(O)co2)nn1; test: (§2) Mixed-type of inhibition of mushroom tyrosinase assessed as Vmax using L-DOPA as substrate at 0.025 uM measured at 475 nm by Lineweaver-Burk double reciprocal plot analysis (reference value: […] to […] deltaOD/min); conditions: Agaricus bisporus
[18] = compound: COc1cc(C(C)=O)ccc1OCc1cn(Cc2cc(=O)c(O)co2)nn1; test: as §2; conditions: Agaricus bisporus
[19] = compound: O=c1cc(OCc2cn(Cc3cc(=O)c(O)co3)nn2)c2ccccc2o1; test: as §2; conditions: Agaricus bisporus
[20] = compound: Cc1ccc(C(C)C)cc1OCc1cn(Cc2cc(=O)c(O)co2)nn1; test: (§3) Mixed-type of inhibition of mushroom tyrosinase assessed as Vmax using L-DOPA as substrate at 0.1 uM measured at 475 nm by Lineweaver-Burk double reciprocal plot analysis (reference value: […] to […] deltaOD/min); conditions: Agaricus bisporus
[21] = compound: COc1cc(C(C)=O)ccc1OCc1cn(Cc2cc(=O)c(O)co2)nn1; test: as §3; conditions: Agaricus bisporus
[22] = compound: O=c1cc(OCc2cn(Cc3cc(=O)c(O)co3)nn2)c2ccccc2o1; test: as §3; conditions: Agaricus bisporus
[23] = compound: Cc1ccc(C(C)C)cc1OCc1cn(Cc2cc(=O)c(O)co2)nn1; test: (§4) Mixed-type of inhibition of mushroom tyrosinase assessed as Km using L-DOPA as substrate at 0.05 uM by Lineweaver-Burk double reciprocal plot analysis (reference value: […] to […] mM); conditions: Agaricus bisporus
[24] = compound: COc1cc(C(C)=O)ccc1OCc1cn(Cc2cc(=O)c(O)co2)nn1; test: as §4; conditions: Agaricus bisporus
[25] = compound: O=c1cc(OCc2cn(Cc3cc(=O)c(O)co3)nn2)c2ccccc2o1; test: as §4; conditions: Agaricus bisporus
[26] = compound: Cc1ccc(C(C)C)cc1OCc1cn(Cc2cc(=O)c(O)co2)nn1; test: (§5) Mixed-type of inhibition of mushroom tyrosinase assessed as Km using L-DOPA as substrate at 0.025 uM by Lineweaver-Burk double reciprocal plot analysis (reference value: […] to […] mM); conditions: Agaricus bisporus
[27] = compound: COc1cc(C(C)=O)ccc1OCc1cn(Cc2cc(=O)c(O)co2)nn1; test: as §5; conditions: Agaricus bisporus
[28] = compound: O=c1cc(OCc2cn(Cc3cc(=O)c(O)co3)nn2)c2ccccc2o1; test: as §5; conditions: Agaricus bisporus
[29] = compound: Cc1ccc(C(C)C)cc1OCc1cn(Cc2cc(=O)c(O)co2)nn1; test: (§6) Mixed-type of inhibition of mushroom tyrosinase assessed as Vmax using L-DOPA as substrate at 0.05 uM measured at 475 nm by Lineweaver-Burk double reciprocal plot analysis (reference value: […] to […] deltaOD/min); conditions: Agaricus bisporus
[30] = compound: COc1cc(C(C)=O)ccc1OCc1cn(Cc2cc(=O)c(O)co2)nn1; test: as §6; conditions: Agaricus bisporus
[31] = compound: O=c1cc(OCc2cn(Cc3cc(=O)c(O)co3)nn2)c2ccccc2o1; test: as §6; conditions: Agaricus bisporus
[32] = compound: O=c1cc(OCc2cn(Cc3cc(=O)c(O)co3)nn2)c2ccccc2o1; test: Mixed-type of inhibition of mushroom tyrosinase assessed as Vmax using L-DOPA as substrate at 0.5 uM measured at 475 nm by Lineweaver-Burk double reciprocal plot analysis (reference value: […] deltaOD/min); conditions: Agaricus bisporus

Molecule: COc1ccc(C=O)cc1O [ISOVANILLIN]
IC50 [1]: > 500 µM

Ratio IC50 [2]: 133
IC50 [3]: 0.06 µM
Molecule: O=c1cc(Cn2cc(COc3ccc4c(c3)OCO4)nn2)occ1O
Activity [4]: inactive

Ratio IC50 [2]: 133
Kis [5]: 0.21 µM
IC50 [6]: 408 µM
IC50 [3]: 0.07 µM
Ki [8]: 0.09 µM
Molecule: Cc1ccc(C(C)C)cc1OCc1cn(Cc2cc(=O)c(O)co2)nn1
Activity [7]: Active
Activity [4]: inactive
IC50 [9]: 193 µM

IC50 [3]: 3.13 µM
Molecule: O=C(O)c1ccc(OCc2cn(Cc3cc(=O)c(O)co3)nn2)cc1
Activity [4]: inactive

IC50 [3]: 0.52 µM
Molecule: C/C=C/c1ccc(OCc2cn(Cc3cc(=O)c(O)co3)nn2)c(OC)c1
Activity [4]: inactive

IC50 [3]: 0.46 µM
Molecule: COC(=O)c1ccc(OCc2cn(Cc3cc(=O)c(O)co3)nn2)cc1
Activity [4]: inactive

IC50 [3]: 1.05 µM
Molecule: O=Cc1ccc(OCc2cn(Cc3cc(=O)c(O)co3)nn2)cc1
Activity [4]: inactive

IC50 [10]: 33.3 µM
Molecule: C/C=C/c1ccc(O)c(OC)c1

IC50 [3]: 0.69 µM
Molecule: Cc1ccc(C(C)C)c(OCc2cn(Cc3cc(=O)c(O)co3)nn2)c1
Activity [4]: inactive

Molecule: Oc1ccc2c(c1)OCO2
IC50 [11]: 6.7 µM

Ratio IC50 [2]: > 460
Kis [5]: 0.12 µM
IC50 [6]: 143 µM
IC50 [3]: 0.02 µM
Ki [8]: 0.04 µM
inhibition [12]: inactive
Molecule: O=c1cc(OCc2cn(Cc3cc(=O)c(O)co3)nn2)c2ccccc2o1
Activity [7]: Active
Activity [4]: inactive
IC50 [9]: 194 µM

IC50 [13]: 4100 µM
Molecule: COc1cc(C=O)ccc1O [VANILLIN]

IC50 [3]: 3.75 µM
Molecule: COc1cc(C=O)cc(OC)c1OCc1cn(Cc2cc(=O)c(O)co2)nn1
Activity [4]: inactive

IC50 [3]: 1.21 µM
Molecule: CC(=O)c1ccc(OCc2cn(Cc3cc(=O)c(O)co3)nn2)cc1
Activity [4]: inactive

Ratio IC50 [2]: 133
Kis [5]: 0.19 µM
IC50 [6]: 416 µM
IC50 [3]: 0.03 µM
Ki [8]: 0.07 µM
Molecule: COc1cc(C(C)=O)ccc1OCc1cn(Cc2cc(=O)c(O)co2)nn1
Activity [4]: inactive
IC50 [9]: 213 µM

IC50 [3]: 1.95 µM
Molecule: COc1ccc(C=O)cc1OCc1cn(Cc2cc(=O)c(O)co2)nn1
Activity [4]: inactive

IC50 [3]: 1.07 µM
Molecule: C=CCc1ccc(OCc2cn(Cc3cc(=O)c(O)co3)nn2)c(OC)c1
Activity [4]: inactive

Molecule: C=CCc1ccc(O)c(OC)c1 [EUGENOL]
IC50 [13]: 923 µM

IC50 [3]: 1.99 µM
Molecule: COc1cc(C=O)ccc1OCc1cn(Cc2cc(=O)c(O)co2)nn1
Activity [4]: inactive

IC50 [3]: 0.23 µM
Molecule: O=c1ccc2ccc(OCc3cn(Cc4cc(=O)c(O)co4)nn3)cc2o1
Activity [4]: inactive

B1: Tyrosinase (Agaricus bisporus), O42713 (protein)
chain: MSLIATVGPTGGVKNRLNIVDFVKNEKFFTLYVRSLELLQAKEQHDYSSFFQLAGIHGLPFTEWAKERPSMNLYKAGYCTHGQVLFPTWHRTYLSVLEQILQGAAIEVAKKFTSNQTDWVQAAQDLRQPYWDWGFELMPPDEVIKNEEVNITNYDGKKISVKNPILRYHFHPIDPSFKPYGDFATWRTTVRNPDRNRREDIPGLIKKMRLEEGQIREKTYNMLKFNDAWERFSNHGISDDQHANSLESVHDDIHVMVGYGKIEGHMDHPFFAAFDPIFWLHHTNVDRLLSLWKAINPDVWVTSGRNRDGTMGIAPNAQINSETPLEPFYQSGDKVWTSASLADTARLGYSYPDFDKLVGGTKELIRDAIDDLIDERYGSKPSSGARNTAFDLLADFKGITKEHKEDLKMYDWTIHVAFKKFELKESFSLLFYFASDGGDYDQENCFVGSINAFRGTAPETCANCQDNENLIQEGFIHLNHYLARDLESFEPQDVHKFLKEKGLSYKLYSRGDKPLTSLSVKIEGRPLHLPPGEHRPKYDHTQARVVFDDVAVHVIN
Km [14]: 2020 µM
Km [15]: 2110 µM
Km [16]: 2250 µM
Vmax [17]: 0.241 deltaOD/min
Vmax [18]: 0.232 deltaOD/min
Vmax [19]: 0.21 deltaOD/min
Vmax [20]: 0.192 deltaOD/min
Vmax [21]: 0.183 deltaOD/min
Vmax [22]: 0.122 deltaOD/min
Km [23]: 1830 µM
Km [24]: 1920 µM
Km [25]: 2020 µM
Km [26]: 1520 µM
Km [27]: 1580 µM
Km [28]: 1710 µM
Vmax [29]: 0.219 deltaOD/min
Vmax [30]: 0.208 deltaOD/min
Vmax [31]: 0.176 deltaOD/min
Vmax [32]: 0.021 deltaOD/min
